ChEMBL document CHEMBL1201861, “Genomics of Drug Sensitity in Cancer screening data, Wellcome Trust Sanger Institute”

What was measured:
Assay in all cases: cells
Settings in all cases: Homo sapiens
COR-L88 = type: functional, cell-based
CP66-MEL = type: functional, cell-based
CW-2 = type: functional, cell-based
Calu-6 = type: functional, cell-based
D283 Med = type: functional, cell-based
D-502MG = type: functional, cell-based
DB = type: functional, cell-based
DEL = type: functional, cell-based
DOHH-2 = type: functional, cell-based
ES3 = type: functional, cell-based
ES5 = type: functional, cell-based
ES8 = type: functional, cell-based
EW-1 = type: functional, cell-based
GAK = type: functional, cell-based
GI-ME-N = type: functional, cell-based
GT3TKB = type: functional, cell-based
HH = type: functional, cell-based
HL-60 = type: functional, cell-based
HT-144 = type: functional, cell-based
HuTu80 = type: functional, cell-based, HUTU-80
IA-LM = type: functional, cell-based
IST-MES1 = type: functional, cell-based
J-RT3-T3-5 = type: functional, cell-based
JAR = type: functional, cell-based
JVM-2 = type: functional, cell-based
K5 = type: functional, cell-based
KALS-1 = type: functional, cell-based
KARPAS-299 = type: functional, cell-based
KARPAS-45 = type: functional, cell-based
KM12 = type: functional, cell-based
KMOE-2 = type: functional, cell-based
L-363 = type: functional, cell-based
LAN-6 = type: functional, cell-based
LB2518-MEL = type: functional, cell-based
LC-2-ad = type: functional, cell-based
LOX IMVI = type: functional, cell-based
LU-134-A = type: functional, cell-based
Lu-65 = type: functional, cell-based
MEG-01 = type: functional, cell-based
MHH-PREB-1 = type: functional, cell-based
MLMA = type: functional, cell-based
MOLT-4 = type: functional, cell-based
MV4-11 = type: functional, cell-based, MV-4-11
MZ7-mel = type: functional, cell-based
NCI-H1581 = type: functional, cell-based
NCI-H1770 = type: functional, cell-based
SNU1 = type: functional, cell-based
NMC-G1 = type: functional, cell-based
NTERA-2-cl-D1 = type: functional, cell-based
OCUB-M = type: functional, cell-based
ONS-76 = type: functional, cell-based
OVCAR-4 = type: functional, cell-based
QIMR-WIL = type: functional, cell-based
RPMI-8866 = type: functional, cell-based
RXF 393 = type: functional, cell-based
SBC-1 = type: functional, cell-based
SHP77 = type: functional, cell-based, SHP-77
SK-N-FI = type: functional, cell-based
SK-PN-DW = type: functional, cell-based
SW 962 = type: functional, cell-based
A3-KAW = type: functional, cell-based
A4-Fuk = type: functional, cell-based
A704 = type: functional, cell-based
TE-10 = type: functional, cell-based
TE-11 = type: functional, cell-based
UACC-257 = type: functional, cell-based

## Cc1[nH]c(/C=C2\C(=O)Nc3ccc(S(=O)(=O)Cc4c(Cl)cccc4Cl)cc32)c(C)c1C(=O)N1CCC[C@@H]1CN1CCCC1 [PHA-665752]
COR-L88
  IC50: […]
CP66-MEL
  IC50: […]
CW-2
  IC50: […]
Calu-6
  IC50: […]
D283 Med
  IC50: […]
D-502MG
  IC50: […]
DB
  IC50: […]
DEL
  IC50: […]
DOHH-2
  IC50: […]
ES3
  IC50: […]
ES5
  IC50: […]
ES8
  IC50: […]
EW-1
  IC50: […]
GAK
  IC50: […]
GI-ME-N
  IC50: […]
GT3TKB
  IC50: […]
HH
  IC50: […]
HL-60
  IC50: […]
HT-144
  IC50: […]
HuTu80
  IC50: […]
IA-LM
  IC50: […]
IST-MES1
  IC50: […]
J-RT3-T3-5
  IC50: […]
JAR
  IC50: […]
JVM-2
  IC50: […]
K5
  IC50: […]
KALS-1
  IC50: […]
KARPAS-299
  IC50: […]
KARPAS-45
  IC50: […]
KM12
  IC50: […]
KMOE-2
  IC50: […]
L-363
  IC50: […]
LAN-6
  IC50: […]
LB2518-MEL
  IC50: […]
LC-2-ad
  IC50: […]
LOX IMVI
  IC50: […]
LU-134-A
  IC50: […]
Lu-65
  IC50: […]
MEG-01
  IC50: […]
MHH-PREB-1
  IC50: […]
MLMA
  IC50: […]
MOLT-4
  IC50: […]
MV4-11
  IC50: 1.29 µM
MZ7-mel
  IC50: […]
NCI-H1581
  IC50: […]
NCI-H1770
  IC50: […]
SNU1
  IC50: […]
NMC-G1
  IC50: […]
NTERA-2-cl-D1
  IC50: […]
OCUB-M
  IC50: […]
ONS-76
  IC50: […]
OVCAR-4
  IC50: […]
QIMR-WIL
  IC50: […]
RPMI-8866
  IC50: […]
RXF 393
  IC50: […]
SBC-1
  IC50: […]
SHP77
  IC50: […]
SK-N-FI
  IC50: […]
SK-PN-DW
  IC50: […]
SW 962
  IC50: […]
A3-KAW
  IC50: […]
A4-Fuk
  IC50: […]
A704
  IC50: […]
TE-10
  IC50: […]
TE-11
  IC50: […]
UACC-257
  IC50: […]

## CC(C)=CC[C@@H](O)C1=CC(=O)c2c(O)ccc(O)c2C1=O [SHIKONIN]
COR-L88
  IC50: > 16 µM
CP66-MEL
  IC50: 2.4 µM
CW-2
  IC50: > 16 µM
Calu-6
  IC50: 15.7 µM
D283 Med
  IC50: 0.835 µM
D-502MG
  IC50: 4.37 µM
DB
  IC50: 0.726 µM
DEL
  IC50: 0.154 µM
DOHH-2
  IC50: 0.706 µM
ES3
  IC50: 0.656 µM
ES5
  IC50: 2.63 µM
ES8
  IC50: 0.778 µM
EW-1
  IC50: 0.844 µM
GAK
  IC50: 1.04 µM
GI-ME-N
  IC50: 0.552 µM
GT3TKB
  IC50: 0.346 µM
HH
  IC50: 1.12 µM
HL-60
  IC50: 1.92 µM
HT-144
  IC50: 0.561 µM
HuTu80
  IC50: 0.37 µM
IA-LM
  IC50: 2.08 µM
IST-MES1
  IC50: 1.7 µM
J-RT3-T3-5
  IC50: 2.09 µM
JAR
  IC50: 3.26 µM
JVM-2
  IC50: 3.87 µM
K5
  IC50: 0.734 µM
KALS-1
  IC50: 1.32 µM
KARPAS-299
  IC50: 0.799 µM
KARPAS-45
  IC50: 9.99 µM
KM12
  IC50: 0.74 µM
KMOE-2
  IC50: 1.24 µM
L-363
  IC50: > 16 µM
LAN-6
  IC50: 3.22 µM
LB2518-MEL
  IC50: 3.28 µM
LC-2-ad
  IC50: 0.953 µM
LOX IMVI
  IC50: 0.412 µM
LU-134-A
  IC50: 0.81 µM
Lu-65
  IC50: > 16 µM
MEG-01
  IC50: 0.451 µM
MHH-PREB-1
  IC50: 0.252 µM
MLMA
  IC50: 0.539 µM
MOLT-4
  IC50: 0.41 µM
MV4-11
  IC50: 0.274 µM
MZ7-mel
  IC50: 0.114 µM
NCI-H1581
  IC50: > 16 µM
NCI-H1770
  IC50: 0.243 µM
SNU1
  IC50: 1.6 µM
NMC-G1
  IC50: 1.3 µM
NTERA-2-cl-D1
  IC50: 0.144 µM
OCUB-M
  IC50: 0.865 µM
ONS-76
  IC50: 0.358 µM
OVCAR-4
  IC50: 0.67 µM
QIMR-WIL
  IC50: 0.182 µM
RPMI-8866
  IC50: 0.536 µM
RXF 393
  IC50: 0.749 µM
SBC-1
  IC50: 12.1 µM
SHP77
  IC50: 0.446 µM
SK-N-FI
  IC50: 7.69 µM
SK-PN-DW
  IC50: 0.0365 µM
SW 962
  IC50: 0.568 µM
A3-KAW
  IC50: 2.14 µM
A4-Fuk
  IC50: 0.25 µM
A704
  IC50: 2.7 µM
TE-10
  IC50: 0.986 µM
TE-11
  IC50: 4.01 µM
UACC-257
  IC50: > 16 µM
